Experimental data: publication PMC11206988, “Study on the Effect of Pharmaceutical Excipient PEG400 on the Pharmacokinetics of Baicalin in Cells Based on MRP2, MRP3, and BCRP Efflux Transporters” (Pharmaceutics, 2024)

Assays:
HepG2 cells = assay: Pharmacokinetic study of baicalin in HepG2 cells (intracellular concentrations by UPLC-MS/MS); assay type: in vitro ADME, human; conditions: for AUC0–t increase compared with the control group: HepG2 cells
Experimental: (§1) The samples were quantified by UPLC-MS/MS, which consisted of a Dionex Ultimate 3000 UPLC system (Thermo Fisher Scientific, Waltham, MA, USA) and a triple quadrupole tandem mass spectrometer (Thermo Fisher Scientific, Waltham, MA, USA). The mass spectrometry was performed using an ESI ion source and in positive ion mode. The chromatograms are shown in Figure S1 of the Supplementary Materials. The samples were analyzed by a Waters XBridge BEH C18 column (2.1 × 100 mm). Mobile phase A consists of acetonitrile, while mobile phase B consists of water containing 0.1% formic acid. The elution program was as follows: B was initially 90%, 0 to 9 min B decreased from 90% to 27%, and 9.1 min to 12 min increased from 27% to 90% B. The flow rate of the mobile phase was 0.3 mL/min, the temperature of the automatic injector was 5 °C, and the injection volume was 10 μL. The m/z for BG and B6G was 447 → 271, for baicalein m/z 271 → 123, and for genistein (IS) m/z 271 → 153. Other mass spectrometry parameters included sheath gas (Arb) pressure, 20 psi, and auxiliary gas (Arb) pressure, 2 psi; source voltage, 4.8 KV, and capillary voltage, 2.5 KV; and ion-transfer-tube temperature, 375 °C, and atomization temperature, 275 °C.
(§2) HepG2 cells were cultured at a density of 1×10^5 cells/mL in 12-well plates for 24 h to facilitate the conduct of cellular pharmacokinetic experiments. The old medium was aspirated and discarded, the wells were rinsed twice with PBS, and 1 mL of 100 μM baicalin and baicalin + PEG400 (0.25%, 0.5%, and 1%) was added into 12-well plates to initiate the timer. The culture was terminated after 0.25 h, 0.5 h, 1 h, 2 h, 4 h, 6 h, 8 h, 10 h, 12 h, and 24 h, respectively. Upon reaching the designated time for administration, the cell culture medium was removed, and the wells were washed with 1 mL of cold PBS solution. Subsequently, 240 μL of ultra-pure water were added to each well, and the sample was stored at −80 °C until analysis. The sample was subjected to sonication in an ice bath for 10 min in order to lyse the cells, thereby enabling the determination of the accumulated drug concentration within the cells. Subsequently, 20 μL of the cell lysate was collected, and the protein concentration was quantified using a BCA kit for normalization.
(§3) After repeated freeze-thaw lysis, 100 μL of cell samples were taken, and 300 μL of 0.2% formic acid acetonitrile (containing 200 ng/mL genistein) were added to the vortex for 10 min to precipitate proteins and then centrifuged at 14,000 r/min for 10 min. Then the supernatant was blown dry under nitrogen at 40 °C and then reconstituted with 200 μL of methanol and centrifuged at 14,000 rpm for 10 min. The supernatant was subjected to UPLC-MS/MS analysis.

[1] = as above; assay type: in vitro ADME, human; conditions: human, intracellular; for AUC(0-t) at 100 μM / Cmax at 100 μM / half-life at 100 μM: HepG2 cells
Experimental: as §1, §2, §3

[2] = HepG2 cells given 100 μM baicalin + H PEG400 (1%)
[3] = HepG2 cells given 100 μM baicalin + L PEG400 (0.25%)
[4] = HepG2 cells given 100 μM baicalin + M PEG400 (0.5%)
[5] = HepG2 cells given 100 μM baicalin alone (group BG, control)

SMILES | Tmax (HepG2 cells; human) [h] | t1/2 (HepG2 cells; human) [h] | AUC(0-t) at 100 μM [1, 2] [ng·h/mL] | Cmax at 100 μM [1, 2] [ng/mL] | half-life at 100 μM [1, 2] [h] | AUC(0-t) at 100 μM [1, 3] [ng·h/mL] | Cmax at 100 μM [1, 3] [ng/mL] | half-life at 100 μM [1, 3] [h] | AUC(0-t) at 100 μM [1, 4] [ng·h/mL] | Cmax at 100 μM [1, 4] [ng/mL] | half-life at 100 μM [1, 4] [h] | Cmax at 100 μM [1, 5] [ng/mL] | half-life at 100 μM [1, 5] [h] | AUC(0-t) at 100 μM ([1]; HepG2 cells given 100 μM baicalin alone (group BG, control), 0.25-24 h) [ng·h/mL] | Tmax at 100 μM [1, 5] [h] | AUC0–t increase compared with the control group (HepG2 cells; baicalin + high PEG400 (1%) vs baicalin alone) [fold] | AUC0–t increase compared with the control group (HepG2 cells; baicalin + low PEG400 (0.25%) vs baicalin alone) [fold] | AUC0–t increase compared with the control group (HepG2 cells; baicalin + medium PEG400 (0.5%) vs baicalin alone) [fold]
O=C(O)[C@H]1O[C@@H](Oc2c(O)cc3oc(-c4ccccc4)cc(=O)c3c2O)[C@H](O)[C@@H](O)[C@@H]1O [B6G, Baicalein-6-O-β-D-glucuronide] | 6.00 | 5.19 ± 2.37 |  |  |  |  |  |  |  |  |  |  |  |  |  |  |  | 
O=c1cc(-c2ccccc2)oc2cc(O)c(O)c(O)c12 [B, baicalein] |  |  | 5640 ± 70 | 510 ± 10 | 6.43 ± 1.85 | 5610 ± 90 | 550 ± 70 | 3.73 ± 0.54 | 5480 ± 118 | 530 ± 60 | 9.4 ± 8.73 | 350 ± 120 | 17.6 ± 7.99 | 4450 ± 60 | 6 | 1.27 | 1.26 | 1.23
